Source: PMC11826995, “Modulation of Protein–Protein Interactions with Molecular Glues in a Synthetic Condensate Platform” (Journal of the American Chemical Society, 2025)
pKd: −log10 of the molar value. Blank lines part the entries; values can stand above or below the compound they belong to. Square brackets hold non-standard residues; d marks the D form. Peptide text beside a SMILES is read from it. * marks the point of attachment. X1 = CCN(CC)c1ccc2c(-c3ccc(NC(=S)*)cc3C(=O)[O-])c3ccc(=[N+](CC)CC)cc-3oc2c1; pS = N[C@@H](COP(=O)(O)O)C(=O)O; AEA = NCCOCC(=O)O

How the values were obtained:
[1] = molecular target: T1, PPARγ/PRIPRAP (Homo sapiens, UniProt P37231); test: Confocal microscopy of PRIPRAP coregulator recruitment to PPARγ-loaded condensates; assay type: biochemical; settings: 100 nM PRIPRAP; for PRIPRAP recruitment to PPARγ-loaded condensates relative to DMSO control: 10 μM ligand, 400 nM PPARγ, overnight
T1 construct: made in house; host or cells: bacterial culture with IPTG induction

[2] = molecular target: T2, PPARγ/MED1 DRIP-2 (Homo sapiens, UniProt P37231); test: Tesaglitazar-dependent recruitment of MED1 DRIP-2 to PPARγ-loaded condensates; assay type: biochemical
T2 construct: made in house; host or cells: bacterial culture with IPTG induction
T2 sequence (P37231 238-503 limits assumed): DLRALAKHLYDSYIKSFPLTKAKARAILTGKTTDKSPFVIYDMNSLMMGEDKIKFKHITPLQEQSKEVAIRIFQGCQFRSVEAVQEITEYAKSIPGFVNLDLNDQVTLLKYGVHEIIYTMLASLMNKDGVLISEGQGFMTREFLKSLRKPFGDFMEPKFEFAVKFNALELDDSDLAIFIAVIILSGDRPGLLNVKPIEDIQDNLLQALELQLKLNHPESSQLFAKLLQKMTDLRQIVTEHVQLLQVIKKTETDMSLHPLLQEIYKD
Experimental: (§1) The dose dependence of the PPI formation was studied using tesaglitazar (Figures 6g, S24 and S25). Here, we found a significant effect in PPI stabilization in the condensates at 10 μM compound. […].

[3] = molecular target: T3, PPARγ/EP300 (Homo sapiens, UniProt P37231); test: Tesaglitazar-dependent recruitment of EP300 to PPARγ-loaded condensates; assay type: biochemical
T3 construct: made in house; host or cells: bacterial culture with IPTG induction
T3 sequence (P37231 238-503 limits assumed): T2 sequence (P37231 238-503 limits assumed)
Experimental: as §1

[4] = tested on: PPARγ/PRIPRAP; test: Fluorescence anisotropy titration of PPARγ to PRIPRAP peptide with PPAR ligands; assay type: binding; settings: FA, PPARγ titrated to PRIPRAP peptide
From the text: to prevent aspecific hydrophobic interactions.
4-parameter logistic model . The resulting KD or KDapp obtained from the fit is shown as mean with the

[5] = molecular target: 14-3-3σ/CIP2A interaction (Homo sapiens, UniProt P31947); test: Confocal microscopy of CIP2A client recruitment to 14-3-3σ-loaded synthetic condensates; assay type: biochemical; settings: 100 nM CIP2A; for enhancement of CIP2A recruitment at 100 μM molecular glue: 100 μM compound
[6] = LC-MS assay for partitioning of small molecules between bulk and condensate phase; assay type: physicochemical; settings: 100 µM FC, 2 h equilibration
[7] = Partitioning of autofluorescent chiglitazar into condensates by confocal fluorescence; assay type: physicochemical; settings: 10 µM, intensity inside condensates versus dilute solution
[8] = molecular target: T4, 14-3-3γ/ERRγ interaction (Homo sapiens, UniProt P61981); test: Split luciferase assay inside condensates; assay type: biochemical; settings: 250 pM LgBiT-ERRγ, 250 pM 14-3-3γ-SmBiT, 100 μM compound, 50 μM TCEP, overnight
T4 construct: made in house; host or cells: E. coli BL21(DE3)
T4 sequence (P61981 2-238 limits assumed): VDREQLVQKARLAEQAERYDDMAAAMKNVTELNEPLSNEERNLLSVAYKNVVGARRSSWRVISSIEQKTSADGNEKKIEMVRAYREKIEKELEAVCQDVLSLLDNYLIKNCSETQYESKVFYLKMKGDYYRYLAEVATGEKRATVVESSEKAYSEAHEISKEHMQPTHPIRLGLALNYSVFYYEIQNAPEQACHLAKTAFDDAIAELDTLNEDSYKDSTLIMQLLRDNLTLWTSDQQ

[9] = tested on: 14-3-3γ/ERRγ interaction; set-up: method as in PMID 36926879; settings: cited from earlier work
[10] = molecular target: apo 14-3-3σ; set-up: method as in PMID 30996864; settings: read-out: KD^II (intrinsic affinity for apo 14-3-3σ); cited from earlier work
[11] = molecular target: T5, 14-3-3σ/HSPB6 (Homo sapiens, UniProt P31947); test: Competition of molecular glue with HSPB6 for 14-3-3σ binding in condensates (confocal microscopy); assay type: biochemical; settings: 14-3-3σ-loaded condensates with HSPB6, overnight
T5 sequence (P31947 1-248): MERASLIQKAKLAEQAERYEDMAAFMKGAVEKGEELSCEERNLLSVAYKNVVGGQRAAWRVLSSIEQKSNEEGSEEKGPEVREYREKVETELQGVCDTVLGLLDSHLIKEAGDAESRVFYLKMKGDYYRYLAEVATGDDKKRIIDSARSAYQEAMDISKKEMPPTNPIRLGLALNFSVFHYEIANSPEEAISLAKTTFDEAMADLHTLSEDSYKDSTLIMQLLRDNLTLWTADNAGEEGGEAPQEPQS

[12] = molecular target: 14-3-3γ/ERRγ (Homo sapiens, UniProt P61981); test: pH-dependent fluorescence anisotropy titration of 14-3-3γ to FAM-labeled ERRγ peptide; assay type: binding; settings: 100 µM compound
Experimental: page 10: acetonitrile was used. […] Fluorescence anisotropy (FA) assays […] labeled peptides. […] (1 picture or pasted object on this page, not shown here) page 23: Table S5. […] compound R1. Data obtained from a fit using a four-parameter logistic model to determine KD or KDapp values as 95% confidence interval. The mean s were used for the calculation of the stabilization factor. pH DMSO: KD at 24 h (μM) Compound […] 24 h (μM) Stabilization factor […] 8.0 4.3-8.6 0.054-0.061 103 […] Figure S16. a) Schematic overview of mCherryEA structure and uptake into synthetic condensates. The […] 552 nm, with collection of emission between 562-700 nm in both settings . c) Confocal micrographs of condensates prepared at different pH (bulk pH values shown), with 500 nM of mCherryEA. Excitation was performed at 488 nm or 552 nm, with collection of emission between 562 -700 nm in both settings. d) Plot of the determined local pH values in the condensates relative to the buffer pH (bulk), as determined from the samples in pa nel c and the calibration curve. (1 picture or pasted object on this page, not shown here)

[13] = molecular target: T6, 14-3-3γ/ERRγ interaction (Homo sapiens, UniProt P61981); test: Confocal microscopy of FITC-ERRγ recruitment to 14-3-3γ-loaded condensates; settings: 100 µM compound, 100 nM FITC-ERRγ
T6 sequence (P61981 1-247): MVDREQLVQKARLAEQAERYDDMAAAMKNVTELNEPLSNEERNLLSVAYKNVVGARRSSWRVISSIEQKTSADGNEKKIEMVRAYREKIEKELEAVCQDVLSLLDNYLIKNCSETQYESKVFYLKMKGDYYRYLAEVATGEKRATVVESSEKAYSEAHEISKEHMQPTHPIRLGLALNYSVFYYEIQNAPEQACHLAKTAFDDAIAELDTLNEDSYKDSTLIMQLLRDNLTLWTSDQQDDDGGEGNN

[14] = molecular target: T7, PPARγ/PRIPRAP (Homo sapiens, UniProt P37231); test: Confocal microscopy of PRIPRAP coregulator recruitment to PPARγ-loaded condensates; assay type: biochemical; settings: GW9662 10 μM + tesaglitazar 10 μM
T7 construct: made in house; host or cells: bacterial culture with IPTG induction
T7 sequence (P37231 235-505): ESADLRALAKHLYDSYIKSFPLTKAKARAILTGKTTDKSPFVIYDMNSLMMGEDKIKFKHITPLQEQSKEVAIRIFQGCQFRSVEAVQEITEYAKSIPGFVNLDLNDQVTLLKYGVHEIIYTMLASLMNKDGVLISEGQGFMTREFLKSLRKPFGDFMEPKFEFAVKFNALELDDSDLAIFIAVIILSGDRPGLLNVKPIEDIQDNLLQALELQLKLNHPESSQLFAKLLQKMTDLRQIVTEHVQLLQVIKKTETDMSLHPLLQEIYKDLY

[15] = molecular target: T8, 14-3-3σ (Homo sapiens, UniProt P31947); test: Fluorescence anisotropy protein titration of 14-3-3σ to HSPB6 peptide; assay type: binding
T8 sequence (P31947 1-248): T5 sequence (P31947 1-248)

Compound: CCO[C@@H](Cc1ccc(OCCc2ccc(OS(C)(=O)=O)cc2)cc1)C(=O)O [Tesaglitazar]
PRIPRAP recruitment to PPARγ-loaded condensates relative to DMSO control [1]: significant recruitment of PRIPRAP | compound concentration with significant effect in PPI stabilization in the condensates ([1]; dose dependence): 10 µM | ligand-mediated stabilization of PPARγ/MED1 DRIP-2 in condensates [2]: ligand-mediated stabilization of the PPI was observed | ligand-mediated stabilization of PPARγ/EP300 in condensates [3]: ligand-mediated stabilization of the PPI was observed | SF100 μM (stabilization factor, fold change in KD^app in the presence of the compound) [4]: 19

Compound: C=CC(C)(C)OC[C@H]1O[C@H](O[C@@H]2C3=C(C(C)C)C[C@H](O)[C@]3(C)/C=C3/[C@@H](COC)CC[C@H]3[C@@H](C)[C@H]2O)[C@H](O)[C@@H](O)[C@@H]1O [FC-J]
enhancement of CIP2A recruitment at 100 μM molecular glue [5]: differentiated performance between the FA assay and the condensates

partitioning coefficient to the condensate phase [6]: 0.96 ± 0.02
Compound: C=CC(C)(C)OCC1OC(OC2C3=C(C(C)COC(C)=O)CC(O)C3(C)C=C3C(COC)CCC3C(C)C2O)C(O)C(O)C1O (stereo not shown) [FC, Fusicoccin A]

Compound: COCC1CCC2C1=CC1(C)C(=C(C(C)C)C3CCOC31)C(OC1OC3COC(C)(C)OC3C(O)C1O)C(O)C2C (stereo not shown) [FC-THF]
enhancement of CIP2A recruitment at 100 μM molecular glue [5]: significant enhancement of CIP2A recruitment

partitioning coefficient [7]: 23 ± 4
Compound: chiglitazar

Compound: CN(C)CCSSCCN(C)C(=O)c1ccc(C=O)cc1 [Compound R2]
bioluminescence signal in split luciferase assay inside condensates [8]: significantly enhanced bioluminescence signal | SF100μM (stabilization factor at 100 μM compound concentration) [9]: 10

Compound: C=CC(C)(C)OC[C@H]1O[C@H](O[C@@H]2C3=C([C@H](C)CNC(C)=O)C[C@H](O)[C@]3(C)/C=C3/[C@@H](COC)CC[C@H]3[C@@H](C)[C@H]2O)[C@H](O)[C@@H](O)[C@@H]1O [FC-NAc]
pKd [10]: 5.00 | enhancement of recruitment of CIP2A at 1 μM molecular glue ([5]; 1 μM compound): significant enhancement of recruitment | competition with HSPB6 for 14-3-3 binding in condensates [11]: significant competition with HSPB6

Compound: CN(C)CCSSCCN(C)C(=O)c1cccc(F)c1 [Compound R4]
SF100μM (stabilization factor at 100 μM compound concentration) [9]: 5

Compound: C=CC(C)(C)OC[C@H]1O[C@H](O[C@@H]2C3=C([C@H](C)CN4CCCCC4)C[C@H](O)[C@]3(C)/C=C3/[C@@H](COC)CC[C@H]3[C@@H](C)[C@H]2O)[C@H](O)[C@@H](O)[C@@H]1O [FC-31]
enhancement of CIP2A recruitment at 100 μM molecular glue [5]: significant enhancement of CIP2A recruitment

Compound: CN(C)CCSSCCN(C)C(=O)c1cc(Br)cc(C=O)c1 [Compound R3]
bioluminescence signal in split luciferase assay inside condensates [8]: significantly enhanced bioluminescence signal | SF100μM (stabilization factor at 100 μM compound concentration) [9]: 37

bioluminescence signal in split luciferase assay inside condensates [8]: no change in the bioluminescence
Compound: CN(C)CCN(C)C(=O)c1ccc(C=O)c(F)c1 [Compound R5]
SF100μM (stabilization factor at 100 μM compound concentration) [9]: 1

Stabilization factor ([12]; pH 6.5, 24 h): 3 | Stabilization factor ([12]; pH 7.0, 24 h): 8 | Stabilization factor ([12]; pH 7.5, 24 h): 40 | Stabilization factor ([12]; pH 8.0, 24 h): 103 | Stabilization factor ([12]; pH 8.5, 24 h): 152
Compound: CN(C)CCSSCCN(C)C(=O)c1cccc(C=O)c1 [Compound R1]
bioluminescence signal in split luciferase assay inside condensates [8]: significantly enhanced bioluminescence signal | SF100μM (stabilization factor at 100 μM compound concentration) [9]: 21 | ERRγ recruitment to condensates over time [13]: reacts over time to yield ERRy recruitment

PRIPRAP recruitment to PPARγ-loaded condensates relative to DMSO control [1]: did not influence PRIPRAP recruitment
Compound: O=C(Nc1ccccc1)c1cc([N+](=O)[O-])ccc1Cl [GW9662]
effect of antagonist in codosing with tesaglitazar on PRIPRAP recruitment [14]: inhibited the stabilizing effect of tesaglitazar

Compound: CCN(CC)c1ccc2c(-c3ccc(NC(=S)NCCOCC(=O)N[C@@H](Cc4c[nH]c5ccccc45)C(=O)N[C@@H](CC(C)C)C(=O)N[C@@H](CCCNC(=N)N)C(=O)N[C@@H](CCCNC(=N)N)C(=O)N[C@@H](C)C(=O)N[C@@H](COP(=O)(O)O)C(=O)N[C@@H](C)C(=O)N4CCC[C@H]4C(=O)N[C@@H](CC(C)C)C(=O)N4CCC[C@H]4C(=O)NCC(=O)N[C@@H](CC(C)C)C(=O)N[C@@H](CO)C(=O)N[C@@H](C)C(=O)N4CCC[C@H]4C(N)=O)cc3C(=O)[O-])c3ccc(=[N+](CC)CC)cc-3oc2c1 [HSPB6] ({X1-AEA}-WLRRA[pS]APLPGLSAP-NH2; C-terminus assumed)
fold lower KD for 14-3-3σ than CIP2A in dilute solution [15]: > 10 fold
